Test results published in patent US10329268B2, “Processes for preparing medicaments for the treatment of cardiovascular diseases and intermediates for use therein” (Bial-Portela & CA., S.A., priority 2013, dated 2019).

Legend:
[1] = Solubility in organic solvents according to Eur. Ph. Chapter 5.11; assay type: physicochemical
Protocol: The solubility of non-micronized and micronized (R)-5-(2-(benzylamino)ethyl)-1-(6,8-difluorochroman-3-yl)-1H-imidazole-2(3H)-thione in several organic solvents was determined.
Solubility Solubility was evaluated according to Eur. Ph. Chapter 5.11 at room temperature.
The following descriptions are used to describe the degree of solubility: […]

[2] = Aqueous solubility at 37° C. in solutions of pH 1.2 to 9.0; assay type: physicochemical
Protocol: The aqueous solubility of (R)-5-(2-(benzylamino)ethyl)-1-(6,8-difluorochroman-3-yl)-1H-imidazole-2(3H)-thione was determined in triplicate at 37° C. Aqueous solutions of HCl (pH 1.2, 2.0, 3.0), potassium chloride (pH 1.2, 2.0), acid phthalate (pH 3.0), acetate (pH 4.5, 5.5), phosphate (pH 7.4) and boric acid (pH 9.0) were tested.

dopamine-β-hydroxylase = molecular target: T1, dopamine-β-hydroxylase (Homo sapiens, UniProt P09172); conditions: background statement, WO2004/033447 / WO2008/136695; cited from earlier work
T1 sequence (P09172 1-617): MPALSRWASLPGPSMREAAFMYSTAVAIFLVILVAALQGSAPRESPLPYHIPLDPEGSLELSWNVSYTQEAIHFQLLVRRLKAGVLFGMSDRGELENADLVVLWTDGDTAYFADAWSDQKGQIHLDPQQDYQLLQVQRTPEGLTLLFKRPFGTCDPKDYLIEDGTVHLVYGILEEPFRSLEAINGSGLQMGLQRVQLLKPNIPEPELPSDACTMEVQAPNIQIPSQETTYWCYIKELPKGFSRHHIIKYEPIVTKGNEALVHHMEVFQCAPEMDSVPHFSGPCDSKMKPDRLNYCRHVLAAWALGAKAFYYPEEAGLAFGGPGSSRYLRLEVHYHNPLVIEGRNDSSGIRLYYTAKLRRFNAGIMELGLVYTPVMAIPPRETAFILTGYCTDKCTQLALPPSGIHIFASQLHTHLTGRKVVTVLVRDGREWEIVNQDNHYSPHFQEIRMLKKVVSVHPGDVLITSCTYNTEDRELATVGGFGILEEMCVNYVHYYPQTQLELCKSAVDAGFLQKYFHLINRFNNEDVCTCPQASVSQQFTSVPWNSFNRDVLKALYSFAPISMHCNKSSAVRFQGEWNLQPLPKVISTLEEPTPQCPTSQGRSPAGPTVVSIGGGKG

[3] = background statement; cited from earlier work

## Fc1cc(F)c2c(c1)C[C@@H](n1c(CCNCc3ccccc3)c[nH]c1=S)CO2 [(R)-5-(2-(benzylamino)ethyl)-1-(6,8-difluorochroman-3-yl)-1H-imidazole-2(3H)-thione]
[1]; all of the polar organic aprotic solvents tested
  Solubility in polar organic aprotic solvents: either sparingly soluble, slightly soluble or very slightly soluble
[1]; micronized particles, 1,4-Dioxane, room temperature
  Solubility description: Very slightly soluble (from 1000 to 10,000 parts)
[1]; micronized particles, 2-propanol, room temperature
  Solubility description: Insoluble
[1]; micronized particles, Absolute ethanol, room temperature
  Solubility description: Very slightly soluble (from 1000 to 10,000 parts)
[1]; micronized particles, Acetone, room temperature
  Solubility description: Slightly soluble (from 100 to 1000 parts)
[1]; micronized particles, Acetonitrile, room temperature
  Solubility description: Very slightly soluble (from 1000 to 10,000 parts)
[1]; micronized particles, Chloroform, room temperature
  Solubility description: Slightly soluble (from 100 to 1000 parts)
[1]; micronized particles, Cyclohexane, room temperature
  Solubility description: Insoluble
[1]; micronized particles, DMSO, room temperature
  Solubility description: Slightly soluble (from 100 to 1000 parts)
[1]; micronized particles, Dichloromethane, room temperature
  Solubility description: Very slightly soluble (from 1000 to 10,000 parts)
[1]; micronized particles, Dimethylformamide, room temperature
  Solubility description: Sparingly soluble (from 30 to 100 parts)
[1]; micronized particles, Ethyl acetate, room temperature
  Solubility description: Very slightly soluble (from 1000 to 10,000 parts)
[1]; micronized particles, Iso-octane (2,2,4-trimethylpentane), room temperature
  Solubility description: Practically insoluble (greater than or equal to 10,000 parts)
[1]; micronized particles, Methanol or acetonitrile acidified with 0.1% formic acid or TFA, room temperature
  Solubility description: Slightly soluble (from 100 to 1000 parts)
[1]; micronized particles, Methanol, room temperature
  Solubility description: Very slightly soluble (from 1000 to 10,000 parts)
[1]; micronized particles, Methyl ethyl ketone, room temperature
  Solubility description: Slightly soluble (from 100 to 1000 parts)
[1]; micronized particles, N,N-methylpirrolidone, room temperature
  Solubility description: Sparingly soluble (from 30 to 100 parts)
[1]; micronized particles, Tetrahydrofuran, room temperature
  Solubility description: Sparingly soluble (from 30 to 100 parts)
[1]; most of the polar organic solvents tested
  Solubility in polar organic solvents: mostly either sparingly soluble, slightly soluble or very slightly soluble
[1]; non-micronized particles, 1,4-Dioxane, room temperature
  Solubility description: Slightly soluble (from 100 to 1000 parts)
[1]; non-micronized particles, 2-propanol, room temperature
  Solubility description: Insoluble
[1]; non-micronized particles, Absolute ethanol, room temperature
  Solubility description: Practically insoluble (greater than or equal to 10,000 parts)
[1]; non-micronized particles, Acetone, room temperature
  Solubility description: Slightly soluble (from 100 to 1000 parts)
[1]; non-micronized particles, Acetonitrile, room temperature
  Solubility description: Very slightly soluble (from 1000 to 10,000 parts)
[1]; non-micronized particles, Chloroform, room temperature
  Solubility description: Very slightly soluble (from 1000 to 10,000 parts)
[1]; non-micronized particles, Cyclohexane, room temperature
  Solubility description: Insoluble
[1]; non-micronized particles, DMSO, room temperature
  Solubility description: Sparingly soluble (from 30 to 100 parts)
[1]; non-micronized particles, Dichloromethane, room temperature
  Solubility description: Slightly soluble (from 100 to 1000 parts)
[1]; non-micronized particles, Dimethylformamide, room temperature
  Solubility description: Sparingly soluble (from 30 to 100 parts)
[1]; non-micronized particles, Ethyl acetate, room temperature
  Solubility description: Very slightly soluble (from 1000 to 10,000 parts)
[1]; non-micronized particles, Hexafluoroisopropanol, room temperature
  Solubility description: Sparingly soluble (from 30 to 100 parts)
[1]; non-micronized particles, Iso-octane (2,2,4-trimethylpentane), room temperature
  Solubility description: Insoluble
[1]; non-micronized particles, Isopropyl acetate, room temperature
  Solubility description: Very slightly soluble (from 1000 to 10,000 parts)
[1]; non-micronized particles, Methanol or acetonitrile acidified with 0.1% formic acid or TFA, room temperature
  Solubility description: Sparingly soluble (from 30 to 100 parts)
[1]; non-micronized particles, Methanol, room temperature
  Solubility description: Very slightly soluble (from 1000 to 10,000 parts)
[1]; non-micronized particles, Methyl ethyl ketone, room temperature
  Solubility description: Slightly soluble (from 100 to 1000 parts)
[1]; non-micronized particles, N,N-methylpirrolidone, room temperature
  Solubility description: Sparingly soluble (from 30 to 100 parts)
[1]; non-micronized particles, Tetrahydrofuran, room temperature
  Solubility description: Sparingly soluble (from 30 to 100 parts)
[1]; non-micronized particles, Toluene, room temperature
  Solubility description: Very slightly soluble (from 1000 to 10,000 parts)
[1]; non-micronized particles, Trifluoroethanol, room temperature
  Solubility description: Slightly soluble (from 100 to 1000 parts)
[1]; organic solvents, room temperature
  Change in the solubility profile, before versus after micronization: no overall significant changes
[2]
  Medium of maximum aqueous solubility: HCl 0.01 (pH 2.0)
[2]; HCl 0.01 (pH 2.0)
  Aqueous solubility after micronization relative to non-micronized: lower
[2]; pH 1.2 to 9.0, both non-micronized and micronized
  Aqueous solubility as a function of pH: decreases with the increase of pH

## Cl.NCCc1c[nH]c(=S)n1[C@H]1COc2c(F)cc(F)cc2C1 [Compound 1, (R)-5-(2-Aminoethyl)-1-(6,8-difluorochroman-3-yl)-1,3-dihydroimidazole-2-thione hydrochloride]
dopamine-β-hydroxylase
  Inhibition of dopamine-β-hydroxylase (DβH): potent
[3]
  Toxicity: non-toxic
